{"source": "patent US20240343699A1", "about": "“DERIVATIVES OF SUBSTITUTED MORPHOLINES AND USES THEREOF” (Supernus Pharmaceuticals, Inc., priority 2023, published 2024)", "key": {"[1]": {"experiment": "PK of S-viloxazine after single PO administration", "details": "for Tmax: 40 mg/kg", "protocol": "Study Design. […] Food was returned 2 hours post-dose.\nTest Article Formulation."}, "[2]": {"system": "anxiety-like behavior", "experiment": "Elevated plus maze (EPM)", "format": "in vivo, male Wistar rats", "details": "for Closed arm entries / Closed arm returns / Head dips in open arms / Stretch-attend postures / Time in closed arms / Time in open arms / Total arm entries: mean; for % Time in open arms / Open Arm Entries / Total distance travelled: mean ± S.E.M."}, "[3]": {"details": "S(−)-VLX in plasma, 40 mg/kg PO, fasted rats"}, "[4]": {"details": "15 mg/kg PO 20 min prior to EPM"}, "[5]": {"details": "30 mg/kg PO 20 min prior to EPM"}, "[6]": {"details": "60 mg/kg PO 20 min prior to EPM"}}, "data": [{"smiles": "CCOc1ccccc1OC[C@@H]1CNCCO1", "note": "[S(−)-VLX]", "values": [{"measurement": "AUC0-last", "setting": "[1]; [3]", "result": "3594 ± 1641", "unit": "ng·h/mL"}, {"measurement": "AUC(0-inf)", "setting": "[1]; [3]", "result": 3600, "unit": "ng·h/mL"}, {"measurement": "AUCExtra", "setting": "[1]; [3]", "result": 0.20, "unit": "%"}, {"measurement": "AUMCExtra", "setting": "[1]; [3]", "result": 1.64, "unit": "%"}, {"measurement": "Cmax", "setting": "[1]; [3]", "result": "2973 ± 1201", "unit": "ng/mL"}, {"measurement": "MRT0-inf", "setting": "[1]; [3]", "result": 67.2, "unit": "min"}, {"measurement": "MRT0-last", "setting": "[1]; [3]", "result": "66 ± 6.36", "unit": "min"}, {"measurement": "T1/2", "setting": "[1]; [3]", "result": "58.2 ± 16.3", "unit": "min"}, {"measurement": "Tlast", "setting": "[1]; [3]", "result": 8.00, "unit": "h"}, {"measurement": "Tmax", "setting": "[1]; [3]", "result": 25.2, "unit": "min"}, {"measurement": "Tmax", "setting": "[1]; S(−)-VLX in plasma, 40 mg/kg PO, fasted rats, listed as S-Viloxazine", "result": "25 ± 8.64", "unit": "min"}, {"measurement": "enantiomer R(+) VLX in plasma", "setting": "[1]; after S-Viloxazine 40 mg/kg PO, LLOQ 1.5 ng/mL", "result": "not detectable at any time points"}, {"measurement": "Closed arm entries", "setting": "[2]; [4]", "result": 7.13}, {"measurement": "Closed arm returns", "setting": "[2]; [4]", "result": 2.13}, {"measurement": "Head dips in open arms", "setting": "[2]; [4]", "result": 1.38}, {"measurement": "Stretch-attend postures", "setting": "[2]; [4]", "result": 17.13}, {"measurement": "Time in closed arms", "setting": "[2]; [4]", "result": 289.33, "unit": "s"}, {"measurement": "Time in open arms", "setting": "[2]; [4]", "result": 1.08, "unit": "s"}, {"measurement": "Total arm entries", "setting": "[2]; [4]", "result": 7.25}, {"measurement": "% Time in open arms", "setting": "[2]; [4]", "result": "0.36 ± 0.36", "unit": "%"}, {"measurement": "Open Arm Entries", "setting": "[2]; [4]", "result": "0.13 ± 0.13"}, {"measurement": "Total distance travelled", "setting": "[2]; [4]", "result": "1334.42 ± 90.911", "unit": "cm"}, {"measurement": "Closed arm entries", "setting": "[2]; [5]", "result": 7.88}, {"measurement": "Closed arm returns", "setting": "[2]; [5]", "result": 2.75}, {"measurement": "Head dips in open arms", "setting": "[2]; [5]", "result": 3.38}, {"measurement": "Stretch-attend postures", "setting": "[2]; [5]", "result": 19.38}, {"measurement": "Time in closed arms", "setting": "[2]; [5]", "result": 277.60, "unit": "s"}, {"measurement": "Time in open arms", "setting": "[2]; [5]", "result": 6.11, "unit": "s"}, {"measurement": "Total arm entries", "setting": "[2]; [5]", "result": 8.25}, {"measurement": "% Time in open arms", "setting": "[2]; [5]", "result": "2.04 ± 1.60", "unit": "%"}, {"measurement": "Open Arm Entries", "setting": "[2]; [5]", "result": "0.38 ± 0.26"}, {"measurement": "Total distance travelled", "setting": "[2]; [5]", "result": "1334.22 ± 68.23", "unit": "cm"}, {"measurement": "Closed arm entries", "setting": "[2]; [6]", "result": 6.00}, {"measurement": "Closed arm returns", "setting": "[2]; [6]", "result": 3.50}, {"measurement": "Head dips in open arms", "setting": "[2]; [6]", "result": 2.88}, {"measurement": "Stretch-attend postures", "setting": "[2]; [6]", "result": 16.38}, {"measurement": "Time in closed arms", "setting": "[2]; [6]", "result": 279.11, "unit": "s"}, {"measurement": "Time in open arms", "setting": "[2]; [6]", "result": 6.43, "unit": "s"}, {"measurement": "Total arm entries", "setting": "[2]; [6]", "result": 6.50}, {"measurement": "% Time in open arms", "setting": "[2]; [6]", "result": "2.14 ± 1.52", "unit": "%"}, {"measurement": "Open Arm Entries", "setting": "[2]; [6]", "result": "0.50 ± 0.38"}, {"measurement": "Total distance travelled", "setting": "[2]; [6]", "result": "1350.11 ± 96.17", "unit": "cm"}, {"measurement": "anxiolytic activity", "setting": "[2]; S-VLX 15, 30, 60 mg/kg p.o.", "result": "None of the doses of S-Viloxazine were associated with anxiolytic activity"}, {"measurement": "total distance traveled vs vehicle", "setting": "[2]; S-VLX 15, 30, and 60 mg/kg p.o.", "result": "travelled a significantly shorter distance"}]}]}
